Experimental data published in patent US6211242A, “Benzamide derivatives as vasopressin antagonists” (Fujisawa Pharmaceutical Co., Ltd., priority 1994, dated 2001).

What was measured:
human V2 receptor = target: T1, human V2 receptor (Homo sapiens, UniProt P30518); experiment: Vasopressin 2 (V2) receptor binding (competition with 3H-vasopressin, CHO cells expressing human V2 receptor); settings: 0.5 nM 3H-vasopressin, CHO cell membranes, 2 hours at 22° C., pH 7.4
T1 construct: expressed in transfected cells
T1 sequence (P30518 whole entry): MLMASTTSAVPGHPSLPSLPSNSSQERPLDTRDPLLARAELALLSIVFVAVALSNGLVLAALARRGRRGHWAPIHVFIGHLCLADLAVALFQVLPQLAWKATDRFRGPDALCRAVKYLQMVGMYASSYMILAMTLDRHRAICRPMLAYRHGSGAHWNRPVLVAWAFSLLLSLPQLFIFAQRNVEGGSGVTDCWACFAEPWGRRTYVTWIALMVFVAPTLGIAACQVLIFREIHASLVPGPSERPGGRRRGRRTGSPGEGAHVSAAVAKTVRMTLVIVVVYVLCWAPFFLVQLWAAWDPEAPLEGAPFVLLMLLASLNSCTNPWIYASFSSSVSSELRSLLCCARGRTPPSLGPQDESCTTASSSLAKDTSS
Method: Vasopressin 2 (V2) receptor binding
For binding assays, the receptor cDNA was permanently expressed in Chinese hamster ovary (CHO) cells. CHO cells were transfected with a vector directing expression of the cDNA for the human V2 receptor and the clonal cell lines expressing human V2 receptor was established essentially as described previously (Nakajima, Y., et. al. J. Biol. Chem., 1992, 267, 2437).
DNA-transfected cells were harvested and homogenized in ice cold 250 mM sucrose buffer containing 25 mM Tris-HCl (pH 7.4), 10 mM MgCl2, 1 mM EDTA and 5 μg/ml p-amidinophenylmethylsulfonyl fluoride (A-PMSF). The homogenate was centrifuged at 500×g for 10 minutes. The supernatant was centrifuged at 100,000×g for 1 hour. The final pellet was suspended in 25 mM Tris-HCl (pH 7.4) buffer (containing 10 mM […], 1 mM EDTA and 5 μg/ml A-PMSF), and stored in small aliquots at -80° C.
Competition assays were conducted at equilibrium (2 hours at 22° C.) by using 0.5 nM ^3 H-vasopressin (40-87 Ci/mmol, New England Nuclear) in 100 mM Tris-HCl (pH 7.4) buffer (containing 5 mM MgCl2, 5 μg/ml A-PMSF, 4 μg/ml leupeptin, 40 μg/ml bacitracin, 20 μg/ml chymostatin and 0.1% bovine serum albumin). Nonspecific binding was determined by using 1 μM vasopressin. After incubation, reaction mixture was rapidly filtered through Whatman glass filter (GF/C). […] The radioactivity was counted in a liquid scintilation counter. […]

[1] = target: T2, Vasopressin 1 (V1) receptor (Homo sapiens, UniProt P37288); experiment: Vasopressin 1 (V1) receptor binding (competition with 3H-vasopressin, platelet membrane preparation); settings: 1.5 nM 3H-vasopressin, platelet membranes, 15 minutes at 30° C., pH 7.4
T2 construct: Platelet-rich plasma (PRP) was prepared by centrifugation of whole blood; from tissue; host or cells: platelet membranes from blood of normal subjects
T2 sequence (P37288 whole entry): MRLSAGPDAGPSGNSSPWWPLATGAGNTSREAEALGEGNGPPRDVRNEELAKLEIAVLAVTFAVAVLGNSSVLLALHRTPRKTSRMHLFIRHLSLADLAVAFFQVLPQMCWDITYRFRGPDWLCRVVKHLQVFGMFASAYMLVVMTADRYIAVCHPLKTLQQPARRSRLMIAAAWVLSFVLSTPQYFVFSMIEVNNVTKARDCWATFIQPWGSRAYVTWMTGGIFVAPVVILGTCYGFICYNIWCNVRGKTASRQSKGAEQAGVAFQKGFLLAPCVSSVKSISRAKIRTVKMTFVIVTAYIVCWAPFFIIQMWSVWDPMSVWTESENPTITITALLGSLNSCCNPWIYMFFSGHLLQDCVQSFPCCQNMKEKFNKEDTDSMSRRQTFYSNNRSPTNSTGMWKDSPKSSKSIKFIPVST
Method: Vasopressin 1 (V1) receptor binding
Blood was obtained by venipuncture from normal subjects. Platelet-rich plasma (PRP) was prepared by centrifugation of whole blood at 200×g for 10 minutes. PRP was centrifuged at 45,000×g for 30 minutes. The remaining pellet was resuspended in 10 volume of ice cold 100 mM Tris-HCl (pH 7.4) buffer (containing 5 mM MgCl2, 0.1% bovine serum albumin and 1 mM EGTA), and centrifuged at 45,000×g for 30 minutes again. The final pellet was resuspended in 100 mM Tris-HCl buffer. The resulting membrane preparation was used immediately for the binding assay.
Competition assays were conducted at equilibrium (15 minutes at 30° C.) by using 1.5 nM ^3 H-vasopressin (40-87 Ci/mmol; New England Nuclear) in 100 mM Tris-HCl (pH 7.4) buffer. Nonspecific binding was determined by using 1 μM vasopressin. After incubation, reaction was terminated by adding 5 ml of ice-cold 100 mM Tris-HCl (pH 7.4) buffer, and then filtered rapidly through Whatman glass filter (GF/C). The filter was washed twice with the same buffer. The glass filter was mixed with liquid scintilation cocktail, and radioactivity was counted in a liquid scintilation counter. Competition activity of the test compound was represented by IC50 values.

| IC50 (human V2 receptor) [nM] | IC50 [1] [nM] | SMILES |
| --- | --- | --- |
| 3 |  | Cc1ccc(-c2ccccc2C(=O)Nc2ccc(C(=O)N(C)c3ccccc3OCc3ccc(C(=O)N4CCN(C)CC4)cc3)cc2)cc1 [27-36)] |
|  | 4.4 | Cc1ccc(N(C)C(=O)c2ccc(NC(=O)c3ccccc3C)cc2)c(OCCCCCC(=O)N2CCN(C)CC2)c1 [27-58), 4-(Methylphenyl-2-carboxamido)-N-methyl-N-[4-methyl-2-[5-(4-methylpiperazin-1-yl)carbonylpent-1-yloxy]phenyl]benzamide] |
| 4.4 |  | Cc1ccc(-c2ccccc2C(=O)Nc2ccc(C(=O)N(C)c3ccccc3OCCN(C)CCC(=O)N3CCN(C)CC3)cc2)cc1 [71-1)] |
